What all share (assay): Kinase panel enzymatic inhibition assay (Nanosyn)
Common to all, as to type: biochemical

For test [1], the target named is T1, PLK1 (Homo sapiens, UniProt P53350).
T1 construct: Nanosyn (contract laboratory that ran the panel)
The following applies: ATP at Km; 30-minute pre-incubation; read-out: kinase inhibition in terms of IC50, PLK1. In a few lines: (§1)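 Single-point screen: compound 5 μM, ATP at Km per kinase, 30 min pre-incubation. Readout by mobility shift (Caliper LabChip), ADP detection or TR-fluorescence. Reported as % inhibition or IC50.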

The target in test [2] is T2, AXL (Homo sapiens, UniProt P30530).
T2 construct: Nanosyn (contract laboratory that ran the panel)
T2 sequence (P30530 26-894): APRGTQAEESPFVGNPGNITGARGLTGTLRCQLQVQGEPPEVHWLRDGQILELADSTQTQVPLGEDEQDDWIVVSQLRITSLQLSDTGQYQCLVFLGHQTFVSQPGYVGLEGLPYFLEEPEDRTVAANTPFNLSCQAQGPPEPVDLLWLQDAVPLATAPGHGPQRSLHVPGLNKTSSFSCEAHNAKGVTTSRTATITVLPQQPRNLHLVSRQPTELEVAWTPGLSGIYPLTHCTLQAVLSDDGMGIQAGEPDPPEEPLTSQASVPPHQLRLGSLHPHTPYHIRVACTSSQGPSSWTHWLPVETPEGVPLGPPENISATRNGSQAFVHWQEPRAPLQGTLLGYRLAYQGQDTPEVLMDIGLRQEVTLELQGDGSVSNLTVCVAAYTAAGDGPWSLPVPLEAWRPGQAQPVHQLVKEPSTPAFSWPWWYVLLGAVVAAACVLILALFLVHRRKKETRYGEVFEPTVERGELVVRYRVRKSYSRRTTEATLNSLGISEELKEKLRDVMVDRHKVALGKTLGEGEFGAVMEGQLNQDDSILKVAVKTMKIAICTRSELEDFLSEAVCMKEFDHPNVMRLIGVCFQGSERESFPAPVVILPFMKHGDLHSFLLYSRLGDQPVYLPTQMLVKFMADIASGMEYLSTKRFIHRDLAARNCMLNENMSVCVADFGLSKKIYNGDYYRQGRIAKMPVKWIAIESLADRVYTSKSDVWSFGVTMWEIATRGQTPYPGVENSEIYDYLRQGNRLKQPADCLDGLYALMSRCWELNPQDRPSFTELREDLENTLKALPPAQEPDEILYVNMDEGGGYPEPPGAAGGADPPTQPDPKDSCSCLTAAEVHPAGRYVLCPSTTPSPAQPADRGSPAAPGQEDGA
The following applies: ATP at Km; 30-minute pre-incubation; read-out: kinase inhibition in terms of IC50, AXL. Summed up:
as §1

The target of test [3] is T3, JAK3 (Homo sapiens, UniProt P52333).
T3 construct: Nanosyn (contract laboratory that ran the panel)
T3 sequence (P52333 1-1124): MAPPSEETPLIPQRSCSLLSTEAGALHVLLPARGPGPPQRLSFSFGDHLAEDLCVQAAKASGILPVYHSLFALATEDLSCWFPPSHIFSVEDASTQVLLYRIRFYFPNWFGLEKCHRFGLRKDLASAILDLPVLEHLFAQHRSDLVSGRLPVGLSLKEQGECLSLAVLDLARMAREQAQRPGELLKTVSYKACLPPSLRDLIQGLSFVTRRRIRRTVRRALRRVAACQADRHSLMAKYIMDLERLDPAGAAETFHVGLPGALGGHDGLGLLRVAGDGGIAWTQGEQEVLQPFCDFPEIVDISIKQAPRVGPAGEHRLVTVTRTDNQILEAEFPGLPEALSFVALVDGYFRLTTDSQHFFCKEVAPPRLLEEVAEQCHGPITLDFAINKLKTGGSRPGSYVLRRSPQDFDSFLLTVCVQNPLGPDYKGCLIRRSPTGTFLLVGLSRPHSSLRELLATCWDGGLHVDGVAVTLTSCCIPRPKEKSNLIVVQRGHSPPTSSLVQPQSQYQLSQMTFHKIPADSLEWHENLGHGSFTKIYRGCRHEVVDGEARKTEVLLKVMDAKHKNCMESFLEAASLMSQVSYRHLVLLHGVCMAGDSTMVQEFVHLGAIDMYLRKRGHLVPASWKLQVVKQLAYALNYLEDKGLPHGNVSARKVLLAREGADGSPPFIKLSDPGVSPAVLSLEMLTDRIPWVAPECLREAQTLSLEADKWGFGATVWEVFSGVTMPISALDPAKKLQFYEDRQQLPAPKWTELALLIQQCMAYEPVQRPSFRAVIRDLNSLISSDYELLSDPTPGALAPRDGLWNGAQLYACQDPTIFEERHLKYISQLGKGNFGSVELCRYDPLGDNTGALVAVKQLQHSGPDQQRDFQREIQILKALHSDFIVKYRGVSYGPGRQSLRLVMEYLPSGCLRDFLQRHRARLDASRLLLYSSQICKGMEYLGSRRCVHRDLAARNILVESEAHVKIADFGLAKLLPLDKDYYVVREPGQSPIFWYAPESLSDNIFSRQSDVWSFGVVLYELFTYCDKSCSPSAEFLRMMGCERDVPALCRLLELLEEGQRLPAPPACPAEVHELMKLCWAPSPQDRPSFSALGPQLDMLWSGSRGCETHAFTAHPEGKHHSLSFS
The following applies: ATP at Km; 30-minute pre-incubation; read-out: kinase inhibition in terms of IC50, JAK3. In a few lines:
as §1

Some results are limits rather than exact numbers.

T1 sequence (P53350 whole entry): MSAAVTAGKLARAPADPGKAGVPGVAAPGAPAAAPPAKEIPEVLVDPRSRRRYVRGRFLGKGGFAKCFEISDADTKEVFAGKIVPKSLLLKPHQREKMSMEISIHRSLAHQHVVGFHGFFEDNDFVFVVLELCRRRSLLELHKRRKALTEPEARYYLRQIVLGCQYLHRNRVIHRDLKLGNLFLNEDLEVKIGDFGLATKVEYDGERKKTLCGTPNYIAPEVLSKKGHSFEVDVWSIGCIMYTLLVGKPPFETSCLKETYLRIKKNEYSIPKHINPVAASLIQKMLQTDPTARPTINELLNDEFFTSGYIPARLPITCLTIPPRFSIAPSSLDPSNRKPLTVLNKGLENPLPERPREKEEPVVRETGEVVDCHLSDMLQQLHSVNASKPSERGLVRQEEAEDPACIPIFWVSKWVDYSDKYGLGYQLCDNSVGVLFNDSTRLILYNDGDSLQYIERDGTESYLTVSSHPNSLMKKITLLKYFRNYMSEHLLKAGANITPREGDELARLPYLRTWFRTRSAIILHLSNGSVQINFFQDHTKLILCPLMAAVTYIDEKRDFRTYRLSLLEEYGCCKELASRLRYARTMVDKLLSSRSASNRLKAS

A word on the IC50: it is the concentration needed to halve the response being measured. Take `COc1cc2nccc(Oc3ccc(NC(=O)c4cc(S(C)(=O)=O)n(-c5ccc(F)cc5)n4)c(F)c3)c2cc1OC` [Ex71, N-(4-((6,7-dimethoxyquinolin-4-yl)oxy)-2-fluorophenyl)-1-(4-fluorophenyl)-5-(methylsulfonyl)-1H-pyrazole-3-carboxamide]: the IC50 is no less than 10 µM in test [1], less than 0.5 µM in test [2] and no less than 10 µM in test [3].
Regarding `COc1cc2nccc(Oc3ccc(NC(=O)c4cc(S(C)(=O)=O)n(-c5ccc(F)cc5)n4)cc3F)c2cc1OC` [Ex73, N-(4-((6,7-dimethoxyquinolin-4-yl)oxy)-3-fluorophenyl)-1-(4-fluorophenyl)-5-(methylsulfonyl)-1H-pyrazole-3-carboxamide], the values for the IC50 in test [1], in test [2] and in test [3] were no less than 10 µM, less than 0.5 µM and no less than 10 µM, respectively.
In the case of `COc1cc2nccc(Oc3ccc(NC(=O)c4cc(S(C)(=O)=O)n(-c5ccc(F)cc5)n4)cc3)c2cc1OC` [Ex72, N-(4-((6,7-dimethoxyquinolin-4-yl)oxy)phenyl)-1-(4-fluorophenyl)-5-(methylsulfonyl)-1H-pyrazole-3-carboxamide], the results for the IC50 in test [1], in test [2] and in test [3] were no less than 10 µM, less than 0.5 µM and no less than 10 µM, respectively.

(Values after patent publication US20240400577A1, “MODULATORS OF PROTEIN KINASES” (VIBLIOME THERAPEUTICS, LLC, priority 2021, published 2024).)
